Results reported in ChEMBL document CHEMBL6153133, “Discovery of Diphenyl Ether Derivatives as Novel BKCa Channel Activators: Structure-Activity Relationship, Cryo-EM Complex Structures, and In Vivo Animal Studies” (J Med Chem, 2025).
Activity calls are given as the source filed them. The calls are words filed in the database; no cut-off is given here.

Legend:
[1] = test system: Calcium-activated potassium channel subunit alpha-1 (Homo sapiens), Q12791 [UNDEFINED MUTATION]; experiment: (§1) Activation of hyperactive human BKca channel G803D/N806K mutant transfected in human AD-293 cells assessed as maximum relative fluorescence value at 5 uM preincubated for 15 mins followed by Tl+ stimulus buffer addition and measured after 80 sec by Flexstation3 multimode microplate reader analysis relative to control; format: cell-based; conditions: time 980.0 sec
Chain of Calcium-activated potassium channel subunit alpha-1 (Homo sapiens), Q12791 [UNDEFINED MUTATION] (Q12791 whole entry, looked up, stated change not applied): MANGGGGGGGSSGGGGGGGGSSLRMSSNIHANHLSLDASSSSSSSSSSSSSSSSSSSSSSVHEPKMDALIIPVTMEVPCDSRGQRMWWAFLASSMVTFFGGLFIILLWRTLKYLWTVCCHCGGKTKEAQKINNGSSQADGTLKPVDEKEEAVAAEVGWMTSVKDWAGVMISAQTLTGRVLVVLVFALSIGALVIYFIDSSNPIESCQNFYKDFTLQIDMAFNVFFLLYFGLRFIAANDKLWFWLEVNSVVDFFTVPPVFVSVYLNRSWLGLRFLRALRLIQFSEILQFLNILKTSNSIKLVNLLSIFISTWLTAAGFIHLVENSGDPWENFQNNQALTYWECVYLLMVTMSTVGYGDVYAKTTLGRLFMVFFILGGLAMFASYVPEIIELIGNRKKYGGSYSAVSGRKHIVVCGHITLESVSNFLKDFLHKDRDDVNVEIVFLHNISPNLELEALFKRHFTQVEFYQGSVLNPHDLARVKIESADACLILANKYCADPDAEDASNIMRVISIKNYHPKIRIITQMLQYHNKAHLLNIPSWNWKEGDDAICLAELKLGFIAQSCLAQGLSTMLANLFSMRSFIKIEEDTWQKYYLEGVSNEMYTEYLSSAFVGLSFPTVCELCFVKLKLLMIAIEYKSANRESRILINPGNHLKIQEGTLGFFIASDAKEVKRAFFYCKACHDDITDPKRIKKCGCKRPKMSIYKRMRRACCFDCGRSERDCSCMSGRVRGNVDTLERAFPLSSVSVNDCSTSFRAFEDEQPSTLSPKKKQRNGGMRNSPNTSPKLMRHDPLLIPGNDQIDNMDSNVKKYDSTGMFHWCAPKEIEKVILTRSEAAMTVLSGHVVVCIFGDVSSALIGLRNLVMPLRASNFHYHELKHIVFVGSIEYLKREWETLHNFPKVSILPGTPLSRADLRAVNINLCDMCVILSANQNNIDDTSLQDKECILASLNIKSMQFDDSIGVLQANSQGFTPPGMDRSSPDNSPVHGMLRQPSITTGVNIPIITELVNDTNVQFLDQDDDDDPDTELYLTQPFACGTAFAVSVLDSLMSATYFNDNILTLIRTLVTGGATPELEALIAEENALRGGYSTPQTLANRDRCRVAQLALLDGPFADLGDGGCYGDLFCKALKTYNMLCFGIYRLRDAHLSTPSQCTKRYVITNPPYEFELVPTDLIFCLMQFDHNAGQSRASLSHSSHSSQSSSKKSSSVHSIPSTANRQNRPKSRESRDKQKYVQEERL

[2] = biological target: Calcium-activated potassium channel subunit alpha-1 (Homo sapiens, UniProt Q12791, G803D/N806K); experiment: (§2) Activation of hyperactive human BKca channel G803D/N806K mutant transfected in human AD-293 cells incubated for 15 mins by Flexstation3 multimode microplate reader analysis; format: cell-based
Chain of Calcium-activated potassium channel subunit alpha-1 (Homo sapiens, UniProt Q12791, G803D/N806K) (Q12791 whole entry, looked up, stated change not applied): as above

[3] = Activation of rat BKca channel extracted from Xenopus laevis Oocytes by patch-clamp electrophysiology recordings; format: cell-based; conditions: Oocyte
[4] = Metabolic stability in rat liver microsomes assessed as parent compound remaining at 1 uM preincubated for 5 mins followed by NADPH addition and measured after 30 mins by LC-MS/MS analysis; format: ADME, Microsome; conditions: read-out: Stability
[5] = Metabolic stability in human liver microsomes assessed as parent compound remaining at 1 uM preincubated for 5 mins followed by NADPH addition and measured after 30 mins by LC-MS/MS analysis; format: ADME, Microsome; conditions: read-out: Stability
[6] = Permeability of compound at pH 7.4 measured after 4 hrs by GIT-PAMPA assay; format: ADME; conditions: read-out: permeability
[7] = test system: Calcium-activated potassium channel subunit alpha-1 (Homo sapiens), Q12791 [UNDEFINED MUTATION]; experiment: as §2; format: cell-based
[8] = test system: Oocyte; experiment: Activation of wildtype rat BKca channel extracted from Xenopus laevis Oocytes assessed as negative shift in V1/2 at 5 uM at -100 mV holding potential by patch-clamp electrophysiology recordings; format: cell-based; conditions: filed as opener
[9] = test system: Oocyte; experiment: Activation of […] rat BKca channel W22A mutant extracted from Xenopus laevis Oocytes assessed as negative shift in V1/2 at 5 uM at -100 mV holding potential by patch-clamp electrophysiology recordings; format: cell-based; conditions: filed as opener
[10] = test system: Oocyte; experiment: Activation of […] rat BKca channel S259A mutant extracted from Xenopus laevis Oocytes assessed as negative shift in V1/2 at 5 uM at -100 mV holding potential by patch-clamp electrophysiology recordings; format: cell-based; conditions: filed as opener
[11] = test system: Oocyte; experiment: Activation of […] rat BKca channel F266A mutant extracted from Xenopus laevis Oocytes assessed as negative shift in V1/2 at 5 uM at -100 mV holding potential by patch-clamp electrophysiology recordings; format: cell-based; conditions: filed as opener
[12] = test system: Calcium-activated potassium channel subunit alpha-1 (Homo sapiens), Q12791 [UNDEFINED MUTATION]; experiment: as §1, with “at 1” for “at 5”; format: cell-based; conditions: time 980.0 sec
[13] = Metabolic stability in rat liver microsomes assessed as parent compound remaining at 1 uM preincubated for 15 mins followed by UDPGA addition and measured after 60 mins by LC-MS/MS analysis; format: ADME, Microsome; conditions: time 75 min, read-out: Stability
[14] = Metabolic stability in human liver microsomes assessed as parent compound remaining at 1 uM preincubated for 15 mins followed by UDPGA addition and measured after 60 mins by LC-MS/MS analysis; format: ADME, Microsome; conditions: time 75 min, read-out: Stability
[15] = biological target: T1, Calcium-activated potassium channel subunit alpha-1 (Homo sapiens, UniProt Q12791); experiment: Activation of BKca channel (unknown origin) by cell-based fluorescence assay
T1 sequence (Q12791 whole entry): as the sequence (Q12791 whole entry, looked up, stated change not applied) above

[16] = biological target: T1, Calcium-activated potassium channel subunit alpha-1; experiment: Activation of BKca channel (unknown origin) by cell based method
[17] = test system: Rattus norvegicus; experiment: Reversal of urinary incontinence in male spontaneous hypertensive rat model assessed as decrease in urine frequency at 20 to 40 mg/kg, po measured after 3 hrs; format: functional, organism-based; conditions: dose 20-40 mg/kg
[18] = test system: Calcium-activated potassium channel subunit alpha-1 (Homo sapiens), Q12791 [UNDEFINED MUTATION]; experiment: Activation of hyperactive human BKca channel G803D/N806K mutant transfected in human AD-293 cells at >2 uM preincubated for 15 mins followed by Tl+ stimulus buffer addition and measured after 80 sec in presence of paxilline by Flexstation3 multimode microplate reader analysis; format: cell-based; conditions: filed as opener, time 980.0 sec
[19] = test system: Rattus norvegicus; experiment: Reversal of urinary incontinence in male spontaneous hypertensive rat model assessed as decrease in urine frequency at 10 to 50 mg/kg, po measured after 3 hrs; format: functional, organism-based; conditions: dose 10-50 mg/kg

Oc1cc(O)cc(Oc2c(F)c(F)c(Cl)c(F)c2F)c1
Activity [1]: 11.8%

Oc1cc(NCCCCCN2CCOCC2)ccc1Oc1c(F)c(F)c(C(F)(F)F)c(F)c1F [listing 1 of 2 here]
EC50 [2]: 2820 nM | EC50 [3]: 970 nM | remaining at 0.5 h, 1 µM [4]: 30.7% | remaining at 0.5 h, 1 µM [5]: 96.9% | Papp at 4 h [6]: 56.6 ×10⁻⁶ cm/s

Oc1ccc(Oc2cccc(C(F)(F)F)c2)c(O)c1
Activity [1]: 5.5%

Nc1ccc(Oc2c(F)c(F)c(C(F)(F)F)c(F)c2F)c(CO)c1
Activity [1]: 37.9%

O=[N+]([O-])c1ccc(Oc2c(F)c(F)c(C(F)(F)F)c(F)c2F)c(O)c1
Activity [1]: 19.3%

NC(=O)c1ccc(Oc2c(F)c(F)c(C(F)(F)F)c(F)c2F)cc1
Activity [7]: inactive

Oc1cc(NCCCCN2CCOCC2)ccc1Oc1c(F)c(F)c(C(F)(F)F)c(F)c1F
Activity [1]: 9.3%

NCCCNc1ccc(Oc2c(F)c(F)c(C(F)(F)F)c(F)c2F)c(O)c1
Activity [1]: 2.4%

Oc1cc(NCCCCCN2CCOCC2)ccc1Oc1c(F)c(F)c(C(F)(F)F)c(F)c1F [listing 2 of 2 here]
Activity ([1]; filed as opener): 81.3% | Activity [8]: 86.2 mV | Activity [9]: 24 mV | Activity [10]: 23.5 mV | Activity [11]: 37.9 mV

NCc1ccc(Oc2c(F)c(F)c(C(F)(F)F)c(F)c2F)c(O)c1
Activity [7]: inactive

Oc1ccc(Oc2cc(Cl)cc(Cl)c2)c(O)c1
Activity ([1]; filed as opener): 61.5%

Nc1ccc(Oc2c(F)c(F)c(C(F)(F)F)c(F)c2F)c(F)c1
Activity ([1]; filed as opener): 83% | EC50 [2]: 1370 nM | Activity [12]: 17.9% | remaining at 0.5 h, 1 µM [4]: 12.7% | remaining at 0.5 h, 1 µM [5]: 14.8%

CCCNc1ccc(Oc2c(F)c(F)c(C(F)(F)F)c(F)c2F)c(O)c1
Activity [1]: 28.1%

CNc1ccc(Oc2c(F)c(F)c(C(F)(F)F)c(F)c2F)c(O)c1
Activity ([1]; filed as opener): 91.7% | EC50 [2]: 420 nM | Activity ([12]; filed as opener): 91.7% | remaining at 0.5 h, 1 µM [4]: 4% | remaining at 0.5 h, 1 µM [5]: 76% | remaining at 1 h, 1 µM [13]: 4.7% | remaining at 1 h, 1 µM [14]: 1.6%

Nc1cc(O)ccc1Oc1c(F)c(F)c(C(F)(F)F)c(F)c1F
Activity [1]: 4.7%

Cc1cccc(NC(=O)c2sc(=S)n3c2[nH]c(=O)c2cc(Br)ccc23)c1
EC50 [15]: 2700 nM | EC50 [16]: 2700 nM

Oc1ccc(O)c(O)c1
Activity [7]: inactive

Nc1ccc(Oc2c(F)c(F)c(C(F)(F)F)c(F)c2F)nc1
Activity [7]: inactive

CN(C)c1ccc(Oc2c(F)c(F)c(C(F)(F)F)c(F)c2F)c(O)c1
Activity [1]: 10.2%

COc1cc(O)ccc1Oc1c(F)c(F)c(Cl)c(F)c1F
Activity [7]: inactive

NCCCCCNc1ccc(Oc2c(F)c(F)c(C(F)(F)F)c(F)c2F)c(O)c1
Activity ([1]; filed as opener): 53.4%

Nc1ccc(Oc2c(F)c(F)c(C(F)(F)F)c(F)c2F)c(Cl)c1
Activity ([1]; filed as opener): 75.2% | Activity [12]: 5.3%

Oc1ccc(Oc2c(F)c(F)c(Cl)c(F)c2F)cc1O
Activity [1]: 4%

Oc1ccc(Oc2ccc(Cl)cc2)c(O)c1
Activity [1]: 1.2%

COc1cc(N)ccc1Oc1c(F)c(F)c(C(F)(F)F)c(F)c1F
Activity ([1]; filed as opener): 107% | Activity [12]: 31.8% | Activity [17]: inactive

Nc1ccc(Oc2c(F)c(F)c(C(F)(F)F)c(F)c2F)c(O)c1
Activity ([1]; filed as opener): 100% | Activity ([12]; filed as opener): 100% | Activity [18]: Active | Activity [19]: inactive

N#Cc1cc(N)ccc1Oc1c(F)c(F)c(C(F)(F)F)c(F)c1F
Activity [1]: 8.1%

Nc1ccc(Oc2c(F)c(F)c(C(F)(F)F)c(F)c2F)c(N)c1
Activity [1]: 10.3%

O=[N+]([O-])c1cc(O)ccc1Oc1c(F)c(F)c(C(F)(F)F)c(F)c1F
Activity [1]: 0.1%
